In ChEMBL document CHEMBL3137667, “[Drug-induced liver injury; fourteenth updated edition of the bibliographic database of liver injuries and related drugs]” (Gastroenterol Clin Biol, 2004):

Experiments:
[1] = human
[2] = Highest frequency of acute liver toxicity observed during clinical trials, expressed as a percentage. [column '% AIGUE' in source]; details: human
[3] = human; remark: listed apart in the source
[4] = Comments (NB not yet translated). [column 'COMMENTAIRES' in source]; details: human
[5] = human; remark: listed apart in the source
[6] = Times to onset, minimal and maximal, observed in the indexed observations. [column 'DELAI' in source]; details: human
[7] = human; remark: listed apart in the source
[8] = human, serum
[9] = human, serum, 4383 h
[10] = human; remark: listed apart in the source
[11] = human; remark: listed apart in the source
[12] = Proposed mechanism(s) of liver damage. [column 'MEC' in source]; details: human
[13] = human; remark: listed apart in the source
[14] = Highest frequency of moderate liver toxicity observed during clinical trials, expressed as a percentage. [column '% BIOL' in source]; details: human
[15] = human; remark: listed apart in the source
[16] = human, serum; remark: listed apart in the source
[17] = human; remark: listed apart in the source
[18] = human; remark: listed apart in the source
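Wherever Hepatotoxicity (association with vascular disease) is given: count of indexed literature references reporting vascular liver injury in humans, e.g. peliosis hepatitis, hepatic veno-occlusive disease or Budd-Chiari syndrome.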
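Wherever Hepatotoxicity (benign tumour) is given: value is a count of indexed literature references citing a benign tumour confirmed by histopathology.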
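Wherever Hepatotoxicity (choleostasis) is given: human cholestatic liver injury, shown by histopathology or by peak ALT or AST elevation over alkaline phosphatase ratio below 2, value counts indexed literature reports.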
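Wherever Hepatotoxicity (chronic liver disease) is given: chronic liver injury confirmed by histopathology or persistently raised serum aminotransferase activity beyond 6 months, value given as the count of indexed literature references.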
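Wherever Hepatotoxicity (cirrhosis) is given: value is a count of indexed literature references reporting cirrhosis confirmed by histopathology.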
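Wherever Hepatotoxicity (cytolytic) is given: human cytolytic liver injury, shown by histopathology or by a ratio above 5 of peak ALT or AST elevation to alkaline phosphatase elevation, value counts indexed references.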
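Wherever Hepatotoxicity (granulomatous hepatitis) is given: value is a count of indexed literature references reporting granulomatous liver disease confirmed by histopathology.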
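Wherever Hepatotoxicity (malignant tumour) is given: malignant tumour confirmed by histopathology, value gives the count of indexed literature references reporting it.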
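Wherever Hepatotoxicity (severe hepatitis) is given: human clinical data: severe hepatitis, meaning potentially life-threatening liver failure or clinically observed cases, the value counts how many indexed literature references report it.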
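Wherever Hepatotoxicity (steatosis) is given: steatosis confirmed by histopathology, value is the count of indexed references.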

Compound: CN(C)CCCN1c2ccccc2CCc2ccc(Cl)cc21 [CLOMIPRAMINE]
- Hepatotoxicity (cytolytic) [1]: 3
- Hepatotoxicity (acute) [2]: 0%
- Hepatotoxicity (steatosis) [3]: 0
- Hepatotoxicity (comment) [4]: RC/AMINEPTINE
- Hepatotoxicity (choleostasis) [5]: 2
- Hepatotoxicity (time to onset) [6]: 1 week - 4 years
- Hepatotoxicity (animal toxicity known) [7]: yes
- Hepatotoxicity (acute) [8]: 6
- Hepatotoxicity (chronic liver disease) [9]: 0
- Hepatotoxicity (severe hepatitis) [10]: 0
- Hepatotoxicity (cirrhosis) [11]: 0
- Hepatotoxicity (mechanism) [12]: Allergic
- Hepatotoxicity (benign tumour) [13]: 0
- Hepatotoxicity (moderate) [14]: 10.7%
- Hepatotoxicity (granulomatous hepatitis) [15]: 0
- Hepatotoxicity (moderate) [16]: 11
- Hepatotoxicity (association with vascular disease) [17]: 0
- Hepatotoxicity (malignant tumour) [18]: 0

Compound: CC(=O)N[C@H]1[C@@H](O[C@H]2[C@H](O)[C@@H](O)[C@H](O[C@H]3[C@H](CS(=O)(=O)O)[C@@H](OS(=O)(=O)O)[C@@H](O[C@H]4[C@H](O)[C@@H](OS(=O)(=O)O)C(O)O[C@H]4C(=O)O)O[C@@H]3O)O[C@@H]2C(=O)O)O[C@H](COS(=O)(=O)O)[C@@H](O)[C@@H]1O (stereo partly drawn) [SODIUM HEPARIN]
- Hepatotoxicity (cytolytic) [1]: 3
- Hepatotoxicity (acute) [2]: 0%
- Hepatotoxicity (steatosis) [3]: 0
- Hepatotoxicity (comment) [4]: RUPTURE_HEPATIQUE
- Hepatotoxicity (choleostasis) [5]: 1
- Hepatotoxicity (time to onset) [6]: 2 days - 2 weeks
- Hepatotoxicity (animal toxicity known) [7]: yes
- Hepatotoxicity (acute) [8]: 4
- Hepatotoxicity (chronic liver disease) [9]: 0
- Hepatotoxicity (severe hepatitis) [10]: 1
- Hepatotoxicity (cirrhosis) [11]: 0
- Hepatotoxicity (mechanism) [12]: Dose-dependant
- Hepatotoxicity (benign tumour) [13]: 0
- Hepatotoxicity (moderate) [14]: 90%
- Hepatotoxicity (granulomatous hepatitis) [15]: 0
- Hepatotoxicity (moderate) [16]: 20
- Hepatotoxicity (association with vascular disease) [17]: 0
- Hepatotoxicity (malignant tumour) [18]: 0

Compound: C=COCC(F)(F)F [FLUROXENE]
- Hepatotoxicity (cytolytic) [1]: 3
- Hepatotoxicity (acute) [2]: 0%
- Hepatotoxicity (steatosis) [3]: 0
- Hepatotoxicity (comment) [4]: I/PHENOBARBITAL/PHENYTOINE
- Hepatotoxicity (choleostasis) [5]: 0
- Hepatotoxicity (time to onset) [6]: 1 day - 5 days
- Hepatotoxicity (animal toxicity known) [7]: yes
- Hepatotoxicity (acute) [8]: 4
- Hepatotoxicity (chronic liver disease) [9]: 0
- Hepatotoxicity (severe hepatitis) [10]: 2
- Hepatotoxicity (cirrhosis) [11]: 0
- Hepatotoxicity (mechanism) [12]: Toxic Metabolite
- Hepatotoxicity (benign tumour) [13]: 0
- Hepatotoxicity (moderate) [14]: 30.4%
- Hepatotoxicity (granulomatous hepatitis) [15]: 0
- Hepatotoxicity (moderate) [16]: 2
- Hepatotoxicity (association with vascular disease) [17]: 0
- Hepatotoxicity (malignant tumour) [18]: 0

Compound: Clc1ccccc1CN1CCc2sccc2C1 [TICLOPIDINE]
- Hepatotoxicity (cytolytic) ([1]; Liver): 15
- Hepatotoxicity (steatosis) [3]: 1
- Hepatotoxicity (comment) [4]: CHOLANGITE CHOLESTASE_PROLONGEE AC_ANTI-N
- Hepatotoxicity (choleostasis) ([5]; Liver): 56
- Hepatotoxicity (time to onset) [6]: 1 week - 3 years
- Hepatotoxicity (animal toxicity known) [7]: yes
- Hepatotoxicity (chronic liver disease) [9]: 1
- Hepatotoxicity (cirrhosis) [11]: 0
- Hepatotoxicity (mechanism) ([12]; Liver): Allergic
- Hepatotoxicity (benign tumour) [13]: 0
- Hepatotoxicity (granulomatous hepatitis) ([15]; Liver): 2
- Hepatotoxicity (association with vascular disease) [17]: 0
- Hepatotoxicity (malignant tumour) [18]: 0

Compound: CCCCNC(=O)NS(=O)(=O)c1ccc(N)cc1 [CARBUTAMIDE]
- Hepatotoxicity (cytolytic) [1]: 1
- Hepatotoxicity (acute) [2]: 1.5%
- Hepatotoxicity (steatosis) [3]: 0
- Hepatotoxicity (comment) [4]: RC/METAHEXAMIDE
- Hepatotoxicity (choleostasis) [5]: 0
- Hepatotoxicity (time to onset) [6]: 2 weeks - 4 weeks
- Hepatotoxicity (animal toxicity known) [7]: yes
- Hepatotoxicity (acute) [8]: 5
- Hepatotoxicity (chronic liver disease) [9]: 0
- Hepatotoxicity (severe hepatitis) [10]: 3
- Hepatotoxicity (cirrhosis) [11]: 0
- Hepatotoxicity (benign tumour) [13]: 0
- Hepatotoxicity (moderate) [14]: 30%
- Hepatotoxicity (granulomatous hepatitis) [15]: 0
- Hepatotoxicity (moderate) [16]: 1
- Hepatotoxicity (association with vascular disease) [17]: 0
- Hepatotoxicity (malignant tumour) [18]: 0

Compound: CN(C)[C@@H]1C(O)=C(C(N)=O)C(=O)[C@@]2(O)C(O)=C3C(=O)c4c(O)cccc4[C@@](C)(O)[C@H]3C[C@@H]12 [TETRACYCLINE]
- Hepatotoxicity (cytolytic) [1]: 2
- Hepatotoxicity (acute) [2]: 0%
- Hepatotoxicity (steatosis) [3]: 22
- Hepatotoxicity (comment) [4]: CHOLESTASE_PROLONGEE DUCTOPENIE
- Hepatotoxicity (choleostasis) [5]: 8
- Hepatotoxicity (time to onset) [6]: 3 days - 2 months
- Hepatotoxicity (animal toxicity known) [7]: yes
- Hepatotoxicity (acute) [8]: 10
- Hepatotoxicity (chronic liver disease) [9]: 1
- Hepatotoxicity (severe hepatitis) [10]: 7
- Hepatotoxicity (cirrhosis) [11]: 0
- Hepatotoxicity (benign tumour) [13]: 0
- Hepatotoxicity (moderate) [14]: 6.3%
- Hepatotoxicity (granulomatous hepatitis) [15]: 0
- Hepatotoxicity (moderate) [16]: 1
- Hepatotoxicity (association with vascular disease) [17]: 0
- Hepatotoxicity (malignant tumour) [18]: 0

Compound: COc1cccc2c1C(=O)c1c(O)c3c(c(O)c1C2=O)C[C@@](O)(C(C)=O)C[C@@H]3O[C@H]1C[C@H](N)[C@H](O)[C@H](C)O1 [DAUNORUBICIN]
- Hepatotoxicity (cytolytic) [1]: 2
- Hepatotoxicity (acute) [2]: 0%
- Hepatotoxicity (steatosis) [3]: 0
- Hepatotoxicity (comment) [4]: I/THIOGUANINE
- Hepatotoxicity (choleostasis) [5]: 0
- Hepatotoxicity (time to onset) [6]: 3 cures
- Hepatotoxicity (animal toxicity known) [7]: yes
- Hepatotoxicity (acute) [8]: 2
- Hepatotoxicity (chronic liver disease) [9]: 0
- Hepatotoxicity (severe hepatitis) [10]: 0
- Hepatotoxicity (cirrhosis) [11]: 0
- Hepatotoxicity (benign tumour) [13]: 0
- Hepatotoxicity (moderate) [14]: 68%
- Hepatotoxicity (granulomatous hepatitis) [15]: 0
- Hepatotoxicity (moderate) [16]: 3
- Hepatotoxicity (association with vascular disease) [17]: 2
- Hepatotoxicity (malignant tumour) [18]: 0

Compound: CCOC(=O)C(C)(C)Oc1ccc(Cl)cc1 [CLOFIBRATE]
- Hepatotoxicity (cytolytic) [1]: 2
- Hepatotoxicity (acute) [2]: 0%
- Hepatotoxicity (steatosis) [3]: 1
- Hepatotoxicity (comment) [4]: RC/FENOFIBRATE
- Hepatotoxicity (choleostasis) [5]: 1
- Hepatotoxicity (time to onset) [6]: 2 months - 7 years
- Hepatotoxicity (animal toxicity known) [7]: yes
- Hepatotoxicity (acute) [8]: 3
- Hepatotoxicity (chronic liver disease) [9]: 0
- Hepatotoxicity (severe hepatitis) [10]: 0
- Hepatotoxicity (cirrhosis) [11]: 0
- Hepatotoxicity (benign tumour) [13]: 1
- Hepatotoxicity (moderate) [14]: 19.7%
- Hepatotoxicity (granulomatous hepatitis) [15]: 1
- Hepatotoxicity (moderate) [16]: 4
- Hepatotoxicity (association with vascular disease) [17]: 0
- Hepatotoxicity (malignant tumour) [18]: 0

Compound: PARAFFIN
- Hepatotoxicity (cytolytic) [1]: 0
- Hepatotoxicity (acute) [2]: 0%
- Hepatotoxicity (steatosis) [3]: 7
- Hepatotoxicity (comment) [4]: LIPOGRANULOMES
- Hepatotoxicity (choleostasis) [5]: 0
- Hepatotoxicity (time to onset) [6]: 10 years
- Hepatotoxicity (animal toxicity known) [7]: yes
- Hepatotoxicity (acute) [8]: 0
- Hepatotoxicity (chronic liver disease) [9]: 0
- Hepatotoxicity (severe hepatitis) [10]: 0
- Hepatotoxicity (cirrhosis) [11]: 0
- Hepatotoxicity (benign tumour) [13]: 0
- Hepatotoxicity (moderate) [14]: 0%
- Hepatotoxicity (granulomatous hepatitis) [15]: 0
- Hepatotoxicity (moderate) [16]: 0
- Hepatotoxicity (association with vascular disease) [17]: 0
- Hepatotoxicity (malignant tumour) [18]: 0

Compound: C=CC[C@@H]1/C=C(\C)C[C@H](C)C[C@H](OC)[C@H]2O[C@@](O)(C(=O)C(=O)N3CCCC[C@H]3C(=O)O[C@H](/C(C)=C/[C@@H]3CC[C@@H](O)[C@H](OC)C3)[C@H](C)[C@@H](O)CC1=O)[C@H](C)C[C@@H]2OC [TACROLIMUS ANHYDROUS]
- Hepatotoxicity (cytolytic) [1]: 0
- Hepatotoxicity (acute) [2]: 0%
- Hepatotoxicity (steatosis) [3]: 0
- Hepatotoxicity (comment) [4]: MVO PELIOSE
- Hepatotoxicity (choleostasis) [5]: 0
- Hepatotoxicity (time to onset) [6]: 1 month - 3 months
- Hepatotoxicity (animal toxicity known) [7]: yes
- Hepatotoxicity (acute) [8]: 0
- Hepatotoxicity (chronic liver disease) [9]: 0
- Hepatotoxicity (severe hepatitis) [10]: 0
- Hepatotoxicity (cirrhosis) [11]: 0
- Hepatotoxicity (benign tumour) [13]: 0
- Hepatotoxicity (moderate) [14]: 37%
- Hepatotoxicity (granulomatous hepatitis) [15]: 0
- Hepatotoxicity (moderate) [16]: 1
- Hepatotoxicity (association with vascular disease) [17]: 2
- Hepatotoxicity (malignant tumour) [18]: 0

Compound: CC[C@]1(O)C[C@@H]2CN(CCc3c([nH]c4ccccc34)[C@@](C(=O)OC)(c3cc4c(cc3OC)N(C)[C@H]3[C@@](O)(C(=O)OC)[C@H](OC(C)=O)[C@]5(CC)C=CCN6CC[C@]43[C@@H]65)C2)C1 [VINBLASTINE]
- Hepatotoxicity (cytolytic) [1]: 0
- Hepatotoxicity (acute) [2]: 0%
- Hepatotoxicity (steatosis) [3]: 0
- Hepatotoxicity (comment) [4]: I/DOXORUBICINE
- Hepatotoxicity (choleostasis) [5]: 1
- Hepatotoxicity (time to onset) [6]: 2 cures
- Hepatotoxicity (animal toxicity known) [7]: yes
- Hepatotoxicity (acute) [8]: 1
- Hepatotoxicity (chronic liver disease) [9]: 0
- Hepatotoxicity (severe hepatitis) [10]: 0
- Hepatotoxicity (cirrhosis) [11]: 0
- Hepatotoxicity (benign tumour) [13]: 0
- Hepatotoxicity (moderate) [14]: 22.6%
- Hepatotoxicity (granulomatous hepatitis) [15]: 0
- Hepatotoxicity (moderate) [16]: 5
- Hepatotoxicity (association with vascular disease) [17]: 1
- Hepatotoxicity (malignant tumour) [18]: 0

Compound: CNCCCN1c2ccccc2CCc2ccccc21 [DESIPRAMINE]
- Hepatotoxicity (cytolytic) ([1]; Liver): 5
- Hepatotoxicity (acute) ([2]; Liver): 0%
- Hepatotoxicity (steatosis) [3]: 0
- Hepatotoxicity (comment) [4]: RC/IMIPRAMINE/TRIMIPRAMINE/CYAMEMAZINE
- Hepatotoxicity (choleostasis) ([5]; Liver): 1
- Hepatotoxicity (time to onset) [6]: 1 week - 1 month
- Hepatotoxicity (animal toxicity known) [7]: yes
- Hepatotoxicity (chronic liver disease) [9]: 0
- Hepatotoxicity (severe hepatitis) ([10]; Liver): 1
- Hepatotoxicity (cirrhosis) [11]: 0
- Hepatotoxicity (mechanism) ([12]; Liver): Allergic
- Hepatotoxicity (benign tumour) [13]: 0
- Hepatotoxicity (moderate) ([14]; Liver): 8.7%
- Hepatotoxicity (granulomatous hepatitis) ([15]; Liver): 0
- Hepatotoxicity (moderate) [16]: 4
- Hepatotoxicity (association with vascular disease) [17]: 0
- Hepatotoxicity (malignant tumour) [18]: 0
